Data: article PMC5218480 (PLoS ONE, 2017)

Test system: MV-4-11 cells
Experiment: Gene expression microarray analysis (Affymetrix PrimeView) and GSEA
Assay type: cell-based, human
Parameters: RFU PODN (11730768_x_at) / Fold change /veh PODN (11730768_x_at) / RFU LINC00158 (11744669_a_at) / Fold change /veh LINC00158 (11744669_a_at) / RFU DUSP10 (11751237_a_at) / Fold change /veh DUSP10 (11751237_a_at) / RFU ID3 (11757404_x_at) / Fold change /veh ID3 (11757404_x_at) / RFU PLEKHG5 (11737974_s_at) / Fold change /veh PLEKHG5 (11737974_s_at) / RFU LRRC4B (11730491_at) / Fold change /veh LRRC4B (11730491_at) / RFU GIMAP4 (11747438_a_at) / Fold change /veh GIMAP4 (11747438_a_at) / RFU KRT8 (11758183_x_at) / Fold change /veh KRT8 (11758183_x_at) / RFU CNN1 (11734310_a_at) / Fold change /veh CNN1 (11734310_a_at) / RFU VPS37D (11726825_at) / Fold change /veh VPS37D (11726825_at) / RFU C10orf10 (11716522_x_at) / Fold change /veh C10orf10 (11716522_x_at) / RFU KIR2DL2 /// KIR2DL4 /// KIR2DL5A /// KIR2DL5B /// KIR2DS1 /// KIR2DS2 /// KIR2DS3 /// KIR2DS4 /// KIR3DL3 /// KIR3DL3 /// KIR3DS1 (11738374_at) / Fold change /veh KIR2DL2 /// KIR2DL4 /// KIR2DL5A /// KIR2DL5B /// KIR2DS1 /// KIR2DS2 /// KIR2DS3 /// KIR2DS4 /// KIR3DL3 /// KIR3DL3 /// KIR3DS1 (11738374_at) / RFU C1QL1 (11718748_at) / Fold change /veh C1QL1 (11718748_at) / RFU TMPRSS4 (11747572_a_at) / Fold change /veh TMPRSS4 (11747572_a_at) / RFU HAMP (11756126_x_at) / Fold change /veh HAMP (11756126_x_at) / RFU RNFT2 (11725882_a_at) / Fold change /veh RNFT2 (11725882_a_at) / RFU NR4A2 (11747474_a_at) / Fold change /veh NR4A2 (11747474_a_at) / RFU ABCC12 (11746883_a_at) / Fold change /veh ABCC12 (11746883_a_at) / RFU TMEM136 (11760407_x_at) / Fold change /veh TMEM136 (11760407_x_at) / RFU CLDN22 /// WWC2 (11732394_at) / Fold change /veh CLDN22 /// WWC2 (11732394_at) / RFU HLA-DPB1 (11760878_x_at) / Fold change /veh HLA-DPB1 (11760878_x_at) / RFU SPINT1 (11716480_a_at) / Fold change /veh SPINT1 (11716480_a_at) / RFU GAP43 (11754022_s_at) / Fold change /veh GAP43 (11754022_s_at) / RFU A4GNT (11735810_at) / Fold change /veh A4GNT (11735810_at) / RFU PRB3 (11715151_x_at) / Fold change /veh PRB3 (11715151_x_at) / RFU TUBB4B (11761932_at) / Fold change /veh TUBB4B (11761932_at) / RFU CAPN14 (11732068_a_at) / Fold change /veh CAPN14 (11732068_a_at) / RFU TMCC2 (11721928_a_at) / Fold change /veh TMCC2 (11721928_a_at) / RFU IRGQ (11745062_a_at) / Fold change /veh IRGQ (11745062_a_at) / RFU FAM174B (11720279_a_at) / Fold change /veh FAM174B (11720279_a_at) / RFU TMPRSS4 (11748680_a_at) / Fold change /veh TMPRSS4 (11748680_a_at) / RFU FAM212B (11763350_a_at) / Fold change /veh FAM212B (11763350_a_at) / RFU PLEKHG5 (11743358_a_at) / Fold change /veh PLEKHG5 (11743358_a_at) / RFU ZSCAN30 (11745921_a_at) / Fold change /veh ZSCAN30 (11745921_a_at) / RFU CMKLR1 (11741424_a_at) / Fold change /veh CMKLR1 (11741424_a_at) / RFU LOC101060620 /// MAPK8IP1 (11723275_at) / Fold change /veh LOC101060620 /// MAPK8IP1 (11723275_at) / RFU SPTSSB (11747773_x_at) / Fold change /veh SPTSSB (11747773_x_at) / RFU PRSS12 (11739890_at) / Fold change /veh PRSS12 (11739890_at) / RFU BIN1 (11741810_x_at) / Fold change /veh BIN1 (11741810_x_at) / RFU WNT11 (11732464_a_at) / Fold change /veh WNT11 (11732464_a_at) / RFU C10orf10 (11716521_a_at) / Fold change /veh C10orf10 (11716521_a_at) / RFU C5orf56 (11738089_at) / Fold change /veh C5orf56 (11738089_at) / RFU CYB561 (11721691_x_at) / Fold change /veh CYB561 (11721691_x_at) / RFU ANKRD19P (11752326_a_at) / Fold change /veh ANKRD19P (11752326_a_at) / RFU OR2T12 /// OR2T33 /// OR2T8 (11738714_s_at) / Fold change /veh OR2T12 /// OR2T33 /// OR2T8 (11738714_s_at) / RFU VCAN (11748164_a_at) / Fold change /veh VCAN (11748164_a_at) / RFU JSRP1 (11732532_at) / Fold change /veh JSRP1 (11732532_at) / RFU KRTAP10-11 (11738290_x_at) / Fold change /veh KRTAP10-11 (11738290_x_at) / RFU MYO3A (11730013_a_at) / Fold change /veh MYO3A (11730013_a_at) / RFU EBF3 (11725865_a_at) / Fold change /veh EBF3 (11725865_a_at) / RFU CAMK2N1 (11719241_x_at) / Fold change /veh CAMK2N1 (11719241_x_at) / RFU C5orf56 (11738088_a_at) / Fold change /veh C5orf56 (11738088_a_at) / RFU OLFML3 (11715873_a_at) / Fold change /veh OLFML3 (11715873_a_at) / RFU LOC100653217 /// NTM (11731650_a_at) / Fold change /veh LOC100653217 /// NTM (11731650_a_at) / RFU MAPK11 (11762145_a_at) / Fold change /veh MAPK11 (11762145_a_at) / RFU FIZ1 (11724087_x_at) / Fold change /veh FIZ1 (11724087_x_at) / RFU OASL (11726364_x_at) / Fold change /veh OASL (11726364_x_at) / RFU SOX15 (11748057_x_at) / Fold change /veh SOX15 (11748057_x_at) / RFU CD79A (11719716_a_at) / Fold change /veh CD79A (11719716_a_at) / RFU HIST1H1D (11736915_at) / Fold change /veh HIST1H1D (11736915_at) / RFU CASKIN2 (11723855_a_at) / Fold change /veh CASKIN2 (11723855_a_at) / RFU LOC730098 (11760151_x_at) / Fold change /veh LOC730098 (11760151_x_at) / RFU OR4N2 (11742367_at) / Fold change /veh OR4N2 (11742367_at) / RFU PRRT2 (11749266_a_at) / Fold change /veh PRRT2 (11749266_a_at) / RFU SNX32 (11753110_a_at) / Fold change /veh SNX32 (11753110_a_at) / RFU CDHR5 (11726645_a_at) / Fold change /veh CDHR5 (11726645_a_at) / RFU RCAN1 (11760418_a_at) / Fold change /veh RCAN1 (11760418_a_at) / RFU FAM167A (11723789_a_at) / Fold change /veh FAM167A (11723789_a_at) / RFU FAM26E (11764081_at) / Fold change /veh FAM26E (11764081_at) / RFU ISYNA1 (11749810_s_at) / Fold change /veh ISYNA1 (11749810_s_at) / RFU ACY1 (11761880_at) / Fold change /veh ACY1 (11761880_at) / RFU 11764098_at / Fold change /veh 11764098_at / RFU SAMD14 (11745864_x_at) / Fold change /veh SAMD14 (11745864_x_at) / RFU NPB (11741838_a_at) / Fold change /veh NPB (11741838_a_at) / RFU TMPRSS6 (11731388_a_at) / Fold change /veh TMPRSS6 (11731388_a_at) / RFU KRTAP10-2 (11738614_at) / Fold change /veh KRTAP10-2 (11738614_at) / RFU ARHGAP8 /// PRR5-ARHGAP8 (11727945_x_at) / Fold change /veh ARHGAP8 /// PRR5-ARHGAP8 (11727945_x_at) / RFU KRTAP5-7 /// NADSYN1 (11734609_at) / Fold change /veh KRTAP5-7 /// NADSYN1 (11734609_at) / RFU RASL12 (11751679_a_at) / Fold change /veh RASL12 (11751679_a_at) / RFU CDKN2B (11736163_a_at) / Fold change /veh CDKN2B (11736163_a_at) / RFU PRF1 (11729649_at) / Fold change /veh PRF1 (11729649_at) / RFU, ZNF638 /// ZNF638-IT1 / Fold change vs veh, ZNF638 /// ZNF638-IT1 / RFU, PANK3 / Fold change vs veh, PANK3 / RFU, SH3YL1 / Fold change vs veh, SH3YL1 / RFU, ZEB2 / Fold change vs veh, ZEB2 / RFU, NRIP1 / Fold change vs veh, NRIP1 / RFU, PTTG1IP / Fold change vs veh, PTTG1IP / RFU, CAPN2 / Fold change vs veh, CAPN2 / RFU, MED14 / Fold change vs veh, MED14 / RFU, SNORA58 / Fold change vs veh, SNORA58 / RFU, C1orf63 / Fold change vs veh, C1orf63 / RFU, LRRFIP1 / Fold change vs veh, LRRFIP1 / RFU, NDUFAF7 / Fold change vs veh, NDUFAF7 / RFU, SLC12A2 / Fold change vs veh, SLC12A2 / RFU, IBTK / Fold change vs veh, IBTK / RFU, ESF1 / Fold change vs veh, ESF1 / Fold change vs veh, TMEM50B / RFU, TAOK1 / Fold change vs veh, TAOK1 / RFU, ACBD3 / Fold change vs veh, ACBD3 / RFU, TMA16 / Fold change vs veh, TMA16 / RFU, RWDD3 / Fold change vs veh, RWDD3 / RFU, BCAT1 / Fold change vs veh, BCAT1 / RFU, EDEM3 / Fold change vs veh, EDEM3 / RFU, TMEM33 / Fold change vs veh, TMEM33 / RFU, WDR75 / Fold change vs veh, WDR75 / RFU, AHCTF1 / Fold change vs veh, AHCTF1 / RFU, TFRC / Fold change vs veh, TFRC / RFU, ZDHHC17 / Fold change vs veh, ZDHHC17 / RFU, NOM1 / Fold change vs veh, NOM1 / RFU, ARL8B / Fold change vs veh, ARL8B / RFU, ZBTB11 / Fold change vs veh, ZBTB11 / RFU, TAMM41 / Fold change vs veh, TAMM41 / RFU, KIAA1704 /// LOC100996395 / Fold change vs veh, KIAA1704 /// LOC100996395 / RFU, ING1 / Fold change vs veh, ING1 / RFU, TRMT61B / Fold change vs veh, TRMT61B / RFU, FUBP3 / Fold change vs veh, FUBP3 / RFU, TP53 / Fold change vs veh, TP53 / RFU, TNKS2 / Fold change vs veh, TNKS2 / RFU, ZFP14 / Fold change vs veh, ZFP14 / RFU, ACTR2 / Fold change vs veh, ACTR2 / RFU, PPP3R1 / Fold change vs veh, PPP3R1 / RFU, PIK3R1 / Fold change vs veh, PIK3R1 / RFU, HNRNPA1 / Fold change vs veh, HNRNPA1 / RFU, RNF170 / Fold change vs veh, RNF170 / RFU, ZNF28 / Fold change vs veh, ZNF28 / RFU, RNGTT / Fold change vs veh, RNGTT / RFU, OGT / Fold change vs veh, OGT / RFU, BRD1 / Fold change vs veh, BRD1 / RFU, MARS / Fold change vs veh, MARS / RFU, ZNF655 / Fold change vs veh, ZNF655 / RFU, FAHD1 / Fold change vs veh, FAHD1 / RFU, BDP1 / Fold change vs veh, BDP1 / RFU, LRRCC1 / Fold change vs veh, LRRCC1 / RFU, ARID1A / Fold change vs veh, ARID1A / RFU, ZNF146 / Fold change vs veh, ZNF146 / RFU, ZNF330 / Fold change vs veh, ZNF330 / RFU, GPN3 / Fold change vs veh, GPN3 / RFU, C9orf123 / Fold change vs veh, C9orf123 / RFU, N4BP2L2 / Fold change vs veh, N4BP2L2 / RFU, ARFIP1 / Fold change vs veh, ARFIP1 / RFU, FAM179B / Fold change vs veh, FAM179B / RFU, BCL10 / Fold change vs veh, BCL10 / RFU, UHRF1BP1L / Fold change vs veh, UHRF1BP1L / RFU, BET1 / Fold change vs veh, BET1 / RFU, CNOT2 / Fold change vs veh, CNOT2 / RFU, ZNF268 / Fold change vs veh, ZNF268 / Fold change vs veh, ZNF507 / RFU, DGCR2 / Fold change vs veh, DGCR2 / RFU, WDSUB1 / Fold change vs veh, WDSUB1 / Fold change vs veh, HSP90B1 /// MIR3652 / RFU, ADSS / Fold change vs veh, ADSS / RFU, GK / Fold change vs veh, GK / RFU, ZNF148 / Fold change vs veh, ZNF148 / RFU, TAF9 / Fold change vs veh, TAF9 / RFU, SLC1A5 / Fold change vs veh, SLC1A5 / RFU, SLMO2 / Fold change vs veh, SLMO2 / RFU, ABCC4 / Fold change vs veh, ABCC4 / RFU, LOC101060439 /// RAP1B / Fold change vs veh, LOC101060439 /// RAP1B / RFU, RFX7 / Fold change vs veh, RFX7 / RFU, GTPBP10 / Fold change vs veh, GTPBP10 / RFU, CNEP1R1 / Fold change vs veh, CNEP1R1 / RFU, BIVM-ERCC5 /// ERCC5 / Fold change vs veh, BIVM-ERCC5 /// ERCC5 / RFU, ILF3 / Fold change vs veh, ILF3 / RFU 11762660_at / Fold change /veh 11762660_at / RFU VCAN (11757783_s_at) / Fold change /veh VCAN (11757783_s_at) / RFU DDX43 (11728927_at) / Fold change /veh DDX43 (11728927_at) / RFU KRT8 (11758188_x_at) / Fold change /veh KRT8 (11758188_x_at) / RFU NKD1 (11759106_at) / Fold change /veh NKD1 (11759106_at) / RFU SRD5A1 (11742802_a_at) / Fold change /veh SRD5A1 (11742802_a_at) / RFU TPSAB1 /// TPSB2 (11721975_s_at) / Fold change /veh TPSAB1 /// TPSB2 (11721975_s_at) / RFU GSTM3 (11746129_a_at) / Fold change /veh GSTM3 (11746129_a_at) / RFU IL23R (11737362_x_at) / Fold change /veh IL23R (11737362_x_at) / RFU TMEM51 (11727254_a_at) / Fold change /veh TMEM51 (11727254_a_at) / RFU PIWIL2 (11732686_x_at) / Fold change /veh PIWIL2 (11732686_x_at) / RFU ORM1 (11744905_x_at) / Fold change /veh ORM1 (11744905_x_at) / RFU CCDC152 (11743942_at) / Fold change /veh CCDC152 (11743942_at) / RFU ECM1 (11717891_a_at) / Fold change /veh ECM1 (11717891_a_at) / RFU IL23R (11748794_a_at) / Fold change /veh IL23R (11748794_a_at) / RFU TNFAIP8L3 (11732012_x_at) / Fold change /veh TNFAIP8L3 (11732012_x_at) / RFU MBOAT4 (11741988_at) / Fold change /veh MBOAT4 (11741988_at) / RFU 11764193_at / Fold change /veh 11764193_at / RFU TMEM53 (11763286_at) / Fold change /veh TMEM53 (11763286_at) / RFU MAGEB2 (11727129_at) / Fold change /veh MAGEB2 (11727129_at) / RFU TMEM200A (11744735_a_at) / Fold change /veh TMEM200A (11744735_a_at) / RFU CCDC152 (11751479_a_at) / Fold change /veh CCDC152 (11751479_a_at) / RFU FAM211A (11726209_a_at) / Fold change /veh FAM211A (11726209_a_at) / RFU RGS16 (11746705_a_at) / Fold change /veh RGS16 (11746705_a_at) / RFU VCAN (11755009_s_at) / Fold change /veh VCAN (11755009_s_at) / RFU RHOB (11743442_s_at) / Fold change /veh RHOB (11743442_s_at) / RFU RGS16 (11720943_a_at) / Fold change /veh RGS16 (11720943_a_at) / RFU RGS16 (11720944_at) / Fold change /veh RGS16 (11720944_at) / RFU, VPS4B / Fold change vs veh, VPS4B / RFU, CREB1 / Fold change vs veh, CREB1 / RFU, DNAJC13 / Fold change vs veh, DNAJC13 / RFU, GNAQ / Fold change vs veh, GNAQ / RFU, CDK5R1 / Fold change vs veh, CDK5R1 / RFU, ZRANB3 / Fold change vs veh, ZRANB3 / RFU, CUL4A / Fold change vs veh, CUL4A / RFU, CCNY / Fold change vs veh, CCNY / RFU, UFL1 / Fold change vs veh, UFL1 / RFU, COG3 / Fold change vs veh, COG3 / RFU, DIAPH2 / Fold change vs veh, DIAPH2 / RFU, SKA2 / Fold change vs veh, SKA2 / RFU, AFF3 / Fold change vs veh, AFF3 / RFU, LMF1 / Fold change vs veh, LMF1 / RFU, IPO11 / Fold change vs veh, IPO11 / RFU, DFFB / Fold change vs veh, DFFB / RFU, FOXP1 / Fold change vs veh, FOXP1 / RFU, CARD8 / Fold change vs veh, CARD8 / RFU, STRN3 / Fold change vs veh, STRN3 / RFU, ADK / Fold change vs veh, ADK / RFU, RASSF2 / Fold change vs veh, RASSF2 / RFU, WIPF1 / Fold change vs veh, WIPF1 / RFU, LARP1B / Fold change vs veh, LARP1B / RFU, RASA1 / Fold change vs veh, RASA1 / RFU, RB1 / Fold change vs veh, RB1 / RFU, PPFIA1 / Fold change vs veh, PPFIA1 / RFU, MAT2A / Fold change vs veh, MAT2A / RFU, CCT5 / Fold change vs veh, CCT5 / RFU, WDR92 / Fold change vs veh, WDR92 / RFU, CUX1 / Fold change vs veh, CUX1 / RFU, TTC7A / Fold change vs veh, TTC7A / RFU, TMEM135 / Fold change vs veh, TMEM135 / RFU, DEPTOR / Fold change vs veh, DEPTOR / RFU, CPM / Fold change vs veh, CPM / RFU, DNAJB6 / Fold change vs veh, DNAJB6 / RFU, CACNA2D3 / Fold change vs veh, CACNA2D3 / RFU, DTX4 / Fold change vs veh, DTX4 / RFU, TFCP2 / Fold change vs veh, TFCP2 / RFU, GMCL1 /// GMCL1P1 / Fold change vs veh, GMCL1 /// GMCL1P1 / RFU, AEBP2 / Fold change vs veh, AEBP2 / RFU, SNHG1 /// SNORD22 /// SNORD25 /// SNORD26 /// SNORD27 /// SNORD28 /// SNORD29 /// SNORD31 / Fold change vs veh, SNHG1 /// SNORD22 /// SNORD25 /// SNORD26 /// SNORD27 /// SNORD28 /// SNORD29 /// SNORD31 / Fold change (Aza/veh), C12orf56 (ProbeSet 11735607_a_at) / Fold change (ACY-1035/veh), C12orf56 (ProbeSet 11735607_a_at) / Fold change (Aza/veh), FGFR1OP (ProbeSet 11751329_s_at) / Fold change (ACY-1035/veh), FGFR1OP (ProbeSet 11751329_s_at) / Fold change (Aza/veh), VPS36 (ProbeSet 11739960_a_at) / Fold change (ACY-1035/veh), VPS36 (ProbeSet 11739960_a_at) / RFU SYPL1 (11715823_x_at) / Fold change /veh SYPL1 (11715823_x_at) / RFU IGFBP7 (11715501_s_at) / Fold change /veh IGFBP7 (11715501_s_at) / RFU REEP3 (11722064_at) / Fold change /veh REEP3 (11722064_at) / RFU IGLL1 (11728026_x_at) / Fold change /veh IGLL1 (11728026_x_at): dose or concentration left out as unconfirmed
Settings: ProbeSet 11749781_s_at; LIST B

Structure (SMILES): Nc1ccc(-c2cccs2)cc1NC(=O)c1ccc2c(c1)cc(C1CC1)n2CCN1CCOCC1 [ACY-1035]
- Fold change vs veh, BCAT1: 0.87
